Patent publication US9624223B2, “Morphinan derivative” (THE KITASATO INSTITUTE, priority 2013, dated 2017)
Marks after values point to notes of the source that are not given here.

Legend:
human opioid receptor δ = molecular target: T1, human opioid receptor δ (Homo sapiens, UniProt P41143); experiment: Opioid receptor function test (Lance Ultra cAMP Kit), δ receptor; assay type: cell-based; conditions: for EC50: agonistic activity, human δ receptor-expressing CHO cells, cAMP, forskolin; for Emax: maximum reaction relative to SNC 80 taken as 100%
T1 construct: host or cells: CHO cells
Method: (§1) Functional activities of the compounds of the present invention on the μ, δ, and κ opioid receptors were examined.
(§2) The test was performed by using Lance Ultra cAMP Kit (Perkin-Elmer) according the prescribed method. In the evaluation of the agonistic activity, each human opioid receptor (δ, μ, and κ, accession numbers and catalog numbers are mentioned below)-expressing CHO cells and 10 μM of a test compound were reacted for 30 minutes in the presence of forskolin in an assay buffer (1×HBSS, […], pH 7.4, […] (isobutylmethylxanthine), 7.5% BSA). The cAMP detection reagent included in the kit was then added, and 1 hour afterward, time decomposition fluorometry was performed by using EnVision plate reader (Perkin-Elmer). […] The Emax value was calculated as a ratio of the maximum reaction of the test compound based on the maximum reaction of each control drug, which was taken as 100%.
(§3) • (+)-4-[(αR)-α-(2S,5R)-4-Allyl-2,5-dimethyl-1-piperazinyl]-3-methoxybenzyl]-N,N-diethylbenzamide DAMGO: • [D-Ala^2,N-MePhe^4,Gly-ol]enkephalin U-69593: • (+)-(5α,7α,8β)-N-Methyl-N-[7-(1-pyrrolidinyl)-1-oxaspiro[4.5]dec-8-yl]benzeneacetamide Accession Numbers and Catalog Numbers δ: Catalog No. CT4607, accession No. NM_000911.2 μ: Catalog No. CT4605, accession No. NM_000914 κ: Catalog No. CT4606, accession No. NM_000912 (ChanTest Corporation)

human opioid receptor μ = molecular target: T2, human opioid receptor μ (Homo sapiens, UniProt P35372); experiment: Opioid receptor function test (Lance Ultra cAMP Kit), μ receptor; assay type: cell-based; conditions: for EC50: agonistic activity, human μ receptor-expressing CHO cells, cAMP, forskolin; for Emax: maximum reaction relative to DAMGO taken as 100%; for μ Receptor reaction ratio at the maximum concentration (reference value): 10 μM, maximum reaction not attained, DAMGO = 100%
T2 construct: host or cells: CHO cells
Method: as §1, §2, §3

human opioid receptor κ = molecular target: T3, human opioid receptor κ (Homo sapiens, UniProt P41145); experiment: Opioid receptor function test (Lance Ultra cAMP Kit), κ receptor; assay type: cell-based; conditions: for EC50: agonistic activity, human κ receptor-expressing CHO cells, cAMP, forskolin; for Emax: maximum reaction relative to U-69593 taken as 100%; for κ Receptor reaction ratio at the maximum concentration (reference value): 10 μM, maximum reaction not attained, U-69593 = 100%
T3 construct: host or cells: CHO cells
Method: as §1, §2, §3

δ opioid receptor = molecular target: T4, δ opioid receptor (Mus musculus, UniProt P32300); experiment: Opioid receptor binding test, [3H]DPDPE, mouse cerebrum membrane fraction; conditions: read-out: Binding affinity (Ki, nM) δ
T4 construct: In the assays for the μ and δ receptors, the mouse cerebrum membrane fraction was used; from tissue; host or cells: mouse cerebrum membrane fraction
Method: (§4) Binding affinities of the compounds of the present invention to the μ, δ, and κ opioid receptors were examined.
(§5) According to a previous report (J. Biol. Chem., 2001, 276:15409-15414), mouse cerebrum and guinea pig cerebellum membrane fractions were prepared. As radioactive ligands for the opioid receptors, [^3H]DAMGO (μ opioid receptor), [^3H]DPDPE (δ opioid receptor), and [3H]U69,593 (κ opioid receptor) were used. In the assays for the μ and δ receptors, the mouse cerebrum membrane fraction was used, and in the assay for the κ receptor, guinea pig cerebellum membrane fraction was used. For the nonspecific binding, DAMGO, DPDPE, and U69,593 were used at 1 μM for μ, δ and κ receptors, respectively. Each receptor membrane fraction, radioactive ligand, and a sample at various concentrations were reacted for a predetermined time, and after the B/F separation, amount of radioactivity remained on the filter was measured with a liquid scintillation counter, and binding inhibition ratio of the test compound (IC50 value) was calculated. Ki value was calculated by using the resulting IC50 value in accordance with the following equation. Ki=IC50/(1+L/Kd) L: Concentration of radioactive ligand used Kd: Kd value of radioactive ligand
(§6) Further, selectivity for the δ receptor among the opioid receptors was determined by calculating ratio of the Ki value for μ or κ, and the Ki value for δ (μ/δ or κ/δ).
(§7) • [D-Ala^2,N-MePhe^4, Gly-Ol]enkephalin DPDPE: • [D-Pen^2,D-Pen^5]enkephalin

μ opioid receptor = molecular target: T5, μ opioid receptor (Mus musculus, UniProt P42866); experiment: Opioid receptor binding test, [3H]DAMGO, mouse cerebrum membrane fraction; conditions: ratio of Ki for μ to Ki for δ
T5 construct: In the assays for the μ and δ receptors, the mouse cerebrum membrane fraction was used; from tissue; host or cells: mouse cerebrum membrane fraction
Method: as §4, §5, §6, §7

κ opioid receptor = molecular target: T6, κ opioid receptor (Cavia porcellus, UniProt P41144); experiment: Opioid receptor binding test, [3H]U69,593, guinea pig cerebellum membrane fraction; conditions: ratio of Ki for κ to Ki for δ
T6 construct: in the assay for the κ receptor, guinea pig cerebellum membrane fraction was used; from tissue; host or cells: guinea pig cerebellum membrane fraction
Method: as §4, §5, §6

hERG channel = molecular target: T7, hERG channel (Homo sapiens, UniProt Q12809); experiment: hERG potassium channel inhibition test (Qpatch16 patch clamp, CHO-K1 cells); assay type: cell-based; conditions: 10 μM; tail current inhibition, hERG-expressing CHO-K1 cells
T7 construct: expressed in transfected cells; host or cells: CHO-K1 cells
Method: The test was performed with Qpatch16 (Sophion Biosciences Inc.) full automatic patch clamp system using hERG channel-stably expressing CHO-K1 cells. The hERG channel inhibitory action of each test compound was obtained on the basis of inhibitory action against a tail current induced by a test pulse at […] for 1 second applied after retention at +20 mV for 2 seconds. The test compound was dissolved in an extracellular fluid (137 mM NaCl, 4 mM KCl, 1.8 mM CaCl2, 1 mM MgCl2, 10 mM D(+)-glucose, 10 mM HEPES, pH 7.4), and the solution was […] at room temperature for 5 minutes. The inhibition ratio was obtained from the ratio of the tail current value observed after the compound was applied based on the tail current value observed before the compound was applied, which was taken as 100%. Cells were used for the test, where the cells show a peak tail current value not smaller than 100 pA, tail current run-down smaller than 30% of the initial current value, leak current smaller than 50% of the peak value of the tail current, and series resistance value lower than 20 MΩ.

T2 sequence (P35372 whole entry): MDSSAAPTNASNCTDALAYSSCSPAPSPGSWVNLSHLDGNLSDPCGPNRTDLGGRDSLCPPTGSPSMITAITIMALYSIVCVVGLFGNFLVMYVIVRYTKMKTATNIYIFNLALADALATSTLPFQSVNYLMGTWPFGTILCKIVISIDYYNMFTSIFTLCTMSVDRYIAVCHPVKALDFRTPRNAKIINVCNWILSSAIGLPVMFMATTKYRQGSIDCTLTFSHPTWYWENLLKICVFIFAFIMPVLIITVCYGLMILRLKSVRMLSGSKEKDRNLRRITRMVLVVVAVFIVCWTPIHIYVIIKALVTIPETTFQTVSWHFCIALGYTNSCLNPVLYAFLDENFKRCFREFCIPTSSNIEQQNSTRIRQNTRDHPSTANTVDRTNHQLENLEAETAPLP
T3 sequence (P41145 whole entry): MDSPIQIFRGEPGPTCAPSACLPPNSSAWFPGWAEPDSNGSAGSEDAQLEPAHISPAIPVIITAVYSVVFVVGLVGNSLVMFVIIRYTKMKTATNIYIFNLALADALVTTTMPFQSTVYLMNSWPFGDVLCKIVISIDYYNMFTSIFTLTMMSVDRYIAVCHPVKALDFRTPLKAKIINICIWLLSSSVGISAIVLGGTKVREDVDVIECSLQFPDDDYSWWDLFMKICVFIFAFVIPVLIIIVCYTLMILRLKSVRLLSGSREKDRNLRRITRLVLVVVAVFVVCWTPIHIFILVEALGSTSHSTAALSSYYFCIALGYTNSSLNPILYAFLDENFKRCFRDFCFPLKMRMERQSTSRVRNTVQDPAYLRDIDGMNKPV
T5 sequence (P42866 whole entry): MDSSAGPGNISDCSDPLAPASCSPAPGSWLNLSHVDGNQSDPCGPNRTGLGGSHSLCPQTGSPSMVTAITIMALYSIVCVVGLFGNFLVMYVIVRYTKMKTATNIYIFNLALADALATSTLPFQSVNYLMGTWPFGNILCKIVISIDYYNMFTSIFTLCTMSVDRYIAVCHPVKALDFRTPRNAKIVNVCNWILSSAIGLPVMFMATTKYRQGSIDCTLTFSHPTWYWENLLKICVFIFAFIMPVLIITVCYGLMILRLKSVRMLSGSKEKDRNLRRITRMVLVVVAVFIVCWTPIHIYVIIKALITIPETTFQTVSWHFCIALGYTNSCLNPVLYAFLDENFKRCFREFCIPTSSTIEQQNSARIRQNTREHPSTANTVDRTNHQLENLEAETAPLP
T6 sequence (P41144 whole entry): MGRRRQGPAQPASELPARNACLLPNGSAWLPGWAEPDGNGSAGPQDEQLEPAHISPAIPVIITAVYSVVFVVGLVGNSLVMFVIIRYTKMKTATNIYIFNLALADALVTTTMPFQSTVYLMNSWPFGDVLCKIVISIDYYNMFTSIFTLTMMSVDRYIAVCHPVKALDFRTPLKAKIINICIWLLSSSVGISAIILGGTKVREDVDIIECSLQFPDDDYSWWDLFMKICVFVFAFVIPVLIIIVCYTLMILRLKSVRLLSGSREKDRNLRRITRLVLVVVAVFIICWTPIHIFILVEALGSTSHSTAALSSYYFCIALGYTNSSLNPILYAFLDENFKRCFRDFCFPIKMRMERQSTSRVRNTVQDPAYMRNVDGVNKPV
T4 sequence (P32300 whole entry): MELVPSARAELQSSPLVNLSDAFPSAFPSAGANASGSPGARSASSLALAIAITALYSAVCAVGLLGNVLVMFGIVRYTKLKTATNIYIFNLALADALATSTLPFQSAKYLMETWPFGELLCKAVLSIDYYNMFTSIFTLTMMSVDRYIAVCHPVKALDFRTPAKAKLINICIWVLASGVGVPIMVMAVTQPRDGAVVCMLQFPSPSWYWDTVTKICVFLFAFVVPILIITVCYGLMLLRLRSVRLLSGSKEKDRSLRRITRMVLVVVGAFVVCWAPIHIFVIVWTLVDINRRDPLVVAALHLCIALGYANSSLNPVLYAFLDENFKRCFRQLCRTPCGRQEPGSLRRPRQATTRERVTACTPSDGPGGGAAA
T7 sequence (Q12809 whole entry): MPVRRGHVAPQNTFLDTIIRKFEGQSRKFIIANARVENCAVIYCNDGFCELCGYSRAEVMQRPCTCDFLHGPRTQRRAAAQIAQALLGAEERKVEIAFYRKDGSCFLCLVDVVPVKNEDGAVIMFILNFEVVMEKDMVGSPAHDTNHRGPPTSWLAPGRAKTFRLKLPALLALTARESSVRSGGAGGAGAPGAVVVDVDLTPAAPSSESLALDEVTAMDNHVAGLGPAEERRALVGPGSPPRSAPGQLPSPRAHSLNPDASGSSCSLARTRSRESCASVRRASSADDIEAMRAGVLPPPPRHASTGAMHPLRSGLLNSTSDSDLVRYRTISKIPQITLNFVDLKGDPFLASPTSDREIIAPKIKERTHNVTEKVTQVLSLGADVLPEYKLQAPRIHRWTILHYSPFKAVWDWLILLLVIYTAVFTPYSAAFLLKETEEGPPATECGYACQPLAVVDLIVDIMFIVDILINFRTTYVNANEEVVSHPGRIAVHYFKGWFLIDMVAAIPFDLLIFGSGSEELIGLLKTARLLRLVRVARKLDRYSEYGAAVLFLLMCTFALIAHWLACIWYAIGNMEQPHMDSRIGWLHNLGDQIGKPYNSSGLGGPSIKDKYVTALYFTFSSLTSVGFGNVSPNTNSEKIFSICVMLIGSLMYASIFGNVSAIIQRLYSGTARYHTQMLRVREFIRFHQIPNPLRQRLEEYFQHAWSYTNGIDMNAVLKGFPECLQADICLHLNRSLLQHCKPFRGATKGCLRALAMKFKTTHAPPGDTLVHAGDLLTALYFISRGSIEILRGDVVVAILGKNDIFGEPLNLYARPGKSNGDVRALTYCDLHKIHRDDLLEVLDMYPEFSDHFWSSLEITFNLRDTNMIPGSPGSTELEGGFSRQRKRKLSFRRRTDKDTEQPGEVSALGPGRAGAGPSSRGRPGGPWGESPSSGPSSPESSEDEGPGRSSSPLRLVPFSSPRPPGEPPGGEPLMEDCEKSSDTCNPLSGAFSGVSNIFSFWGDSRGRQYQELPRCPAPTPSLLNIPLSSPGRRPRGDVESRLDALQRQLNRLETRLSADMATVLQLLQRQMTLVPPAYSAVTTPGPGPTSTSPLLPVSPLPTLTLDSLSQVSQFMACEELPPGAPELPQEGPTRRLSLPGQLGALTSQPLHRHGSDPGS
T1 sequence (P41143 whole entry): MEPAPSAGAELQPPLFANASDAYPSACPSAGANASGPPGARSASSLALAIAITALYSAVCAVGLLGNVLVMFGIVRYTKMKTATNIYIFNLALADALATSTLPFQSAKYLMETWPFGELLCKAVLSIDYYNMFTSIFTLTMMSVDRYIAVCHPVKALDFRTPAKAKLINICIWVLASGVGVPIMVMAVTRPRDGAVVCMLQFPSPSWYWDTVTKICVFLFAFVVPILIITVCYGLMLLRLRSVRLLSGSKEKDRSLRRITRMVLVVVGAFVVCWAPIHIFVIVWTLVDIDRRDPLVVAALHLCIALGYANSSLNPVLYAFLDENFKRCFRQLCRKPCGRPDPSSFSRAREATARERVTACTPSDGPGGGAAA

O=C(c1ccccc1)N1C[C@H]2CC34CCC1C2C31CCN(CC2CNC2)C4Cc2ccc(O)cc21 (some centres unmarked) [Compound 49]
EC50 (human opioid receptor δ): < 1 nM | Emax (human opioid receptor δ): 108% | EC50 (human opioid receptor μ): > 100 nM | Emax (human opioid receptor μ): 105% | EC50 (human opioid receptor κ): > 100 nM | Emax (human opioid receptor κ): 28%

C[C@H](N)CN1CCC23c4cc(O)ccc4CC1C21CCC2C3[C@@H](CN2C(=O)c2ccccc2)C1 (some centres unmarked) [Compound 43]
EC50 (human opioid receptor δ): < 10 nM | Emax (human opioid receptor δ): 109% | μ Receptor reaction ratio at the maximum concentration (reference value) (human opioid receptor μ): (8.2)^a % | κ Receptor reaction ratio at the maximum concentration (reference value) (human opioid receptor κ): (7.2)^a % | Ki (δ opioid receptor): < 1 nM | δ-receptor selectivity (Ki value ratio) μ/δ (μ opioid receptor): >10 | δ-receptor selectivity (Ki value ratio) κ/δ (κ opioid receptor): >10

O=C(c1ccccc1)N1C[C@H]2CC34CCC1C2C31CCN(C[C@@H]2CCCCN2)C4Cc2ccc(O)cc21 (some centres unmarked) [Compound 47]
Ki (δ opioid receptor): < 10 nM | δ-receptor selectivity (Ki value ratio) μ/δ (μ opioid receptor): >10 | δ-receptor selectivity (Ki value ratio) κ/δ (κ opioid receptor): >10

NCCCN1CCC23c4cc(O)ccc4CC1C21CCC2C3[C@@H](CN2C(=O)c2cccc3ccccc23)C1 (some centres unmarked) [Compound 55]
EC50 (human opioid receptor δ): < 1 nM | Emax (human opioid receptor δ): 102% | EC50 (human opioid receptor μ): > 10 nM | Emax (human opioid receptor μ): 82% | κ Receptor reaction ratio at the maximum concentration (reference value) (human opioid receptor κ): (4.8)^a %

NCCCN1CCC23c4cc(O)ccc4CC1C21CCC2C3[C@@H](CN2C(=O)c2ccccc2)C1 (some centres unmarked) [Compound 41]
EC50 (human opioid receptor δ): < 1 nM | Emax (human opioid receptor δ): 103% | EC50 (human opioid receptor μ): > 100 nM | Emax (human opioid receptor μ): 97% | κ Receptor reaction ratio at the maximum concentration (reference value) (human opioid receptor κ): (15)^a %

Cc1cc(C)nc(N2C[C@H]3C[C@@]45CC[C@@H]2[C@@H]3[C@@]42CCN(CCN(C)C)[C@@H]5Cc3ccc(O)cc32)n1 [Compound 74, (1S,3aR,5aS,6R,11bR,11cS)-14-[2-(dimethylamino)ethyl]-3-(4,6-dimethylpyrimidin-2-yl)-2,3,3a,4,5,6,7,11c-octahydro-1H-6,11b-(epiminoethano)-1,5a-methanonaphtho[1,2-e]indol-10-ol]
EC50 (human opioid receptor δ): < 1 nM | Emax (human opioid receptor δ): 101% | EC50 (human opioid receptor μ): > 10 nM | Emax (human opioid receptor μ): 121% | EC50 (human opioid receptor κ): > 100 nM | Emax (human opioid receptor κ): 46%

N[C@@H](CO)CN1CC[C@@]23c4cc(O)ccc4C[C@@H]1[C@]21CC[C@@H]2[C@H]3[C@@H](CN2C(=O)c2ccccc2)C1 [Compound 64, [(1S,3aR,5aS,6R,11bR,11cS)-14-[(2R)-2-amino-3-hydroxypropyl]-10-hydroxy-1,2,3a,4,5,6,7,11c-octahydro-3H-6,11b-(epiminoethano)-1,5a-methanonaphtho[1,2-e]indol-3-yl](phenyl)methanone]
EC50 (human opioid receptor δ): < 1 nM | Emax (human opioid receptor δ): 105% | μ Receptor reaction ratio at the maximum concentration (reference value) (human opioid receptor μ): (60)^a % | κ Receptor reaction ratio at the maximum concentration (reference value) (human opioid receptor κ): (9.0)^a % | HERG channel inhibitory action (hERG channel): <50%

NCC(O)CN1CC[C@@]23c4cc(O)ccc4C[C@@H]1[C@]21CC[C@@H]2[C@H]3[C@@H](CN2C(=O)c2ccccc2)C1 (single isomer, unassigned) [Compound 62a]
EC50 (human opioid receptor δ): < 1 nM | Emax (human opioid receptor δ): 108% | EC50 (human opioid receptor μ): > 100 nM | Emax (human opioid receptor μ): 106% | κ Receptor reaction ratio at the maximum concentration (reference value) (human opioid receptor κ): (1.7)^a %

NCCN1CC[C@@]23c4cc(O)ccc4C[C@@H]1[C@]21CC[C@@H]2[C@H]3[C@@H](CN2C(=O)c2ccccc2)C1 [Compound 13, [(1S,3aR,5aS,6R,11bR,11cS)-14-(2-aminoethyl)-10-hydroxy-1,2,3a,4,5,6,7,11c-octahydro-3H-6,11b-(epiminoethano)-1,5a-methanonaphtho[1,2-e]indol-3-yl](phenyl)methanone]
EC50 (human opioid receptor δ): < 10 nM | Emax (human opioid receptor δ): 101% | EC50 (human opioid receptor μ): > 100 nM | Emax (human opioid receptor μ): 39% | EC50 (human opioid receptor κ): > 100 nM | Emax (human opioid receptor κ): 12% | Ki (δ opioid receptor): < 10 nM | δ-receptor selectivity (Ki value ratio) μ/δ (μ opioid receptor): >10 | δ-receptor selectivity (Ki value ratio) κ/δ (κ opioid receptor): >10 | HERG channel inhibitory action (hERG channel): <50%

CN(C)CCN1CCC23c4cc(O)ccc4CC1C21CCC2C3[C@@H](CN2C(=O)c2ccccc2)C1 (some centres unmarked) [Compound 40]
EC50 (human opioid receptor δ): < 1 nM | Emax (human opioid receptor δ): 104% | EC50 (human opioid receptor μ): > 10 nM | Emax (human opioid receptor μ): 92% | EC50 (human opioid receptor κ): > 10 nM | Emax (human opioid receptor κ): 22%

CN1CCC[C@H]1CN1CCC23c4cc(O)ccc4CC1C21CCC2C3[C@@H](CN2C(=O)c2ccccc2)C1 (stereo partly drawn) [Compound 20, [(1S,3aR,5aS,6R,11bR,11cS)-10-hydroxy-14-[[(2S)-11-methylpyrrolidin-2-yl]methyl]-1,2,3a,4,5,6,7,11c-octahydro-3H-6,11b-(epiminoethano)-1,5a-methanonaphtho[1,2-e]indol-3-yl](phenyl)methanone]
EC50 (human opioid receptor δ): < 1 nM | Emax (human opioid receptor δ): 103% | EC50 (human opioid receptor μ): > 100 nM | Emax (human opioid receptor μ): 54% | EC50 (human opioid receptor κ): > 10 nM | Emax (human opioid receptor κ): 17%

O=C(c1ccccc1)N1C[C@H]2C[C@@]34CC[C@@H]1[C@@H]2[C@@]31CCN(C[C@@H]2CCCN2)[C@@H]4Cc2ccc(O)cc21 [Compound 19, [(1S,3aR,5aS,6R,11bR,11cS)-10-hydroxy-14-[[(2S)-pyrrolidin-2-yl]methyl]-1,2,3a,4,5,6,7,11c-octahydro-3H-6,11b-(epiminoethano)-1,5a-methanonaphtho[1,2-e]indol-3-yl](phenyl)methanone]
EC50 (human opioid receptor δ): < 10 nM | Emax (human opioid receptor δ): 106% | EC50 (human opioid receptor μ): > 100 nM | Emax (human opioid receptor μ): 27% | κ Receptor reaction ratio at the maximum concentration (reference value) (human opioid receptor κ): (2.6)^a % | HERG channel inhibitory action (hERG channel): <50%

Cc1cc(C)nc(N2C[C@H]3C[C@@]45CC[C@@H]2[C@@H]3[C@@]42CCN(CCCN)[C@@H]5Cc3ccc(O)cc32)n1 [Compound 76, (1S,3aR,5aS,6R,11bR,11cS)-14-(3-aminopropyl)-3-(4,6-dimethylpyrimidin-2-yl)-2,3,3a,4,5,6,7,11c-octahydro-1H-6,11b-(epiminoethano)-1,5a-methanonaphtho[1,2-e]indol-10-ol]
HERG channel inhibitory action (hERG channel): <50%
